# In US5019492A, “Photographic element and process comprising a blocked photographically useful compound” (Eastman Kodak Company, priority 1989, dated 1991):
# Legend:
# [1] = Deblocking of blocked filter dyes in C-41 developer with or without hydroxylamine sulfate at 38° C.; details: unblocked dye
# Procedure: FILTER DYE Gelatin (4844); blocked filter dye
# bis(vinylsulfonylmethyl) ether
# Strips of each coating were soaked at 38° C. in C-41 developer or in the same C-41 developer formulation from which hydroxylamine sulfate (HAS) had been omitted. The rate of deblocking of each filter dye was followed by measuring the density at the absorption maximum of the unblocked dye at selected time intervals.
# [2] = Unblocking of shifted masking coupler in fixed unexposed strips (density at 520 nm); details: blocked compound
# Procedure: Each compound was dispersed in an equal weight of 2,4-di-t-pentylphenol and coated in the following format on a poly(ethylene terephthalate) film support (unless otherwise specified, component amounts are given in mg/m^2 with silver halide counted as silver):
# OVERCOAT Gelatin (2691); bis(vinylsulfonyl-
# LAYER: methyl) ether hardener (1.75% of
# EMULSION Gelatin (3767); unsensitized AgBr
# LAYER: emulsion (906); masking coupler
# Unexposed strips of this coated element were soaked 1 minute in a fixing solution to remove silver halide, washed, and then immersed in one of the following processing solutions at temperatures conventionally used for processing in a KODAK C-41 process:
# P-1: pH 10 carbonate buffer
# P-2: pH 10 carbonate buffer with 0.024M hydroxylamine sulfate
# P-3: C-41 color developer with hydroxylamine sulfate omitted
# P-4: C-41 color developer solution containing hydroxylamine sulfate
# [3] = Model deblocking (hydrolysis) half-lives of esters with mononucleophile (A+B) or dinucleophile hydroxylamine (A+C), pH 10, 25° C.; format: physicochemical; details: for rate enhancement due to dinucleophile (hydroxylamine) participation, compared with comparison esters E-4 and E-5: pH 10.0, 25° C.; for Ratio (A+B half-life to A+C half-life): rate enhancement due to hydroxylamine
# Procedure: Model studies were conducted on esters E-1 through E-5 to determine the possible rate enhancement which could be attained by using a dinucleophile rather than a mononucleophile to promote the removal from a phenolic moiety of a blocking group of this invention. Aqueous solutions A, B, and C, each containing 50% by volume of acetonitrile were prepared as follows (a separate solution A for each ester):
# Solution A: 2.5 × 10^-4 M ester (or 2.5 × 10^-5 M
# Solution B: 25% by volume carbonate buffer
# (ionic strength 0.75); 0.05 N KCl
# Solution C: Solution B with added 0.05 M
# Then equal volumes of A and B (or A and C) were mixed at 25° C. to give a pH 10.0 solution and the reaction was followed by spectrophotometric measurements of the phenol (272 nm) or p-nitrophenol (402 nm) produced with time. In each case a reaction half-life (t1/2) was calculated from the equation t1/2 =1n(2)/k, where 1n(2) is the natural logarithm of 2 and k is the pseudo first-order rate constant calculated for the reaction. Smaller half-lives thus indicate more rapid reactions. The A+B combination provides an alkaline solution in which the main reactant is hydroxide ion (a mononucleophile) while in the A+C combination the active reactant is hydroxylamine (a dinucleophile). A ratio of the A+B half-life to the A+C half-life provides a measure of rate enhancement due to participation of hydroxylamine in the deblocking reaction.
structure (smiles),measurement,setting,value
CCCCCCCCCCCCOC(=O)c1ccc(N=Nc2ccc(N(CC)C(=O)OCc3ccc(OC(=O)C4(C)CCCCC4=O)c(Cl)c3)c(OC)c2)cc1 (stereo not drawn) [Compound 5],λmax (Unblocked),[1],440 nm
CCC(C)(C)c1ccc(OCCCCNC(=O)c2cc(Oc3ccc(N=Nc4cc(OC(C)C(=O)O)c5ccccc5c4OC(=O)C4(C)CCCCC4=O)cc3)c3ccccc3c2O)c(C(C)(C)CC)c1 (stereo not drawn) [Compound 3],absorption maximum (blocked),[2],about 375 nm
CC(=O)C(C)(C)C(=O)Oc1ccc([N+](=O)[O-])cc1 [Compound E-1],"rate enhancement due to dinucleophile (hydroxylamine) participation, compared with comparison esters E-4 and E-5",[3],twenty to seventy thousand times greater
same,Ratio (A+B half-life to A+C half-life),[3],36 × 10^3
CC1(C(=O)Oc2ccccc2)CCCCC1=O (stereo not drawn) [Compound E-3],"rate enhancement due to dinucleophile (hydroxylamine) participation, compared with comparison esters E-4 and E-5",[3],twenty to seventy thousand times greater
same,Ratio (A+B half-life to A+C half-life),[3],3.2 × 10^6
CC(=O)C(C)(C)C(=O)Oc1ccccc1 [Compound E-2],"rate enhancement due to dinucleophile (hydroxylamine) participation, compared with comparison esters E-4 and E-5",[3],twenty to seventy thousand times greater
same,Ratio (A+B half-life to A+C half-life),[3],93 × 10^3
"CC(=O)CCC(=O)Oc1ccccc1 [Compound E-4, reference compound]",Ratio (A+B half-life to A+C half-life),[3],47
CCCCCCCCCCCCN(C(=O)OCc1ccc(OC(=O)C2(C)CCCCC2=O)c(NS(C)(=O)=O)c1)c1ccc(N=Nc2ccc([N+](=O)[O-])cc2C(=O)OC)cc1OC (stereo not drawn) [Compound 6],λmax (Unblocked),[1],495 nm
"CC(=O)CC(C)(C)C(=O)Oc1ccccc1 [Compound E-5, reference compound]",Ratio (A+B half-life to A+C half-life),[3],166
CCCCCCCCCCCCOC(=O)c1ccc(N=Nc2ccc(N(CC)C(=O)OCc3ccc(OC(=O)C4(C)CCCCC4=O)c(NS(C)(=O)=O)c3)c(OC)c2)cc1 (stereo not drawn) [Compound 4],λmax (Unblocked),[1],440 nm
